Results on three compounds are retold here after US11891464B2, “Alkane-soluble non-metallocene precatalysts” (Dow Global Technologies LLC, priority 2018, dated 2024).

Data set [1] is described as follows: Solubility Test Method (solubility in hexanes). Particulars: hexanes containing at least 60 wt % n-hexane; room temperature and ambient pressure. It counts as physicochemical. The method, then: Solubility Test Method: to a 20-mL vial is added, at room temperature and ambient pressure, a known mass of test precatalyst (e.g., compound (1)) and a known volume of hexanes containing at least 60 weight percent n-hexane. A PTFE-coated magnetic stir bar is added and the mixture is allowed to stir for 1 hour before the vial is removed from the stir plate, and the mixture is allowed to sit overnight. The next day the suspension is filtered through a 0.4 μm PTFE syringe filter into a tared vial, giving a known mass of supernatant, and the hexanes are removed under reduced pressure, leaving a measurable mass of the compound of formula (1) from which wt. % solubility is calculated.

The nature of data set [2]: Light-off Test Method (time to maximum temperature in polymerization of 1-octene). The settings on record: for Light-off Performance (Time to Maximum (minutes)): 8 micromoles precatalyst, 0.16 g spray dried methylaluminoxane, 11 mL 1-octene. Here is the method:
Light-off Test Method: Under an atmosphere of nitrogen in a glovebox, charge a 40 mL glass vial with a PTFE-coated, magnetic stir bar and 0.16 g of spray dried methylaluminoxane powder of Preparation 1A. To the charged vial add 11 mL of 1-octene, and then insert the vial into an insulated sleeve mounted on a magnetic stir plate turning at approximately 300 rotations per minute (rpm). To the insulated vial add 8 micromoles (μmol) of precatalyst (e.g., compound (1) or HN5Zr dibenzyl). Cap the vial with a rubber septum. Insert a thermocouple probe through the rubber septum into the vial such that the tip of the thermocouple probe is below the liquid level. Record the temperature of the contents of the vial at 5 second intervals, continuing until after the maximum temperature is reached. Download the temperature and time data to a spreadsheet, and plot thermo-kinetic profiles for analysis.

As for `Cc1c(C)c(C)c([N-]CCNCC[N-]c2c(C)c(C)c(C)c(C)c2C)c(C)c1C.[CH2-]c1ccccc1.[CH2-]c1ccccc1.[Zr+4]` [HN5Zr dibenzyl (CE2)], the “Solubility in Hexanes (wt %)” value in data set [1] is recorded as 0.03 wt %. Moreover, in data set [2], the “Light-off Performance (Time to Maximum (minutes))” value (“Light-off Performance” for short) is 78.6 min.
As to `Cc1c(C)c(C)c([N-]CCNCC[N-]c2c(C)c(C)c(C)c(C)c2C)c(C)c1C.[Cl-].[Cl-].[Zr+4]` [HN5Zr dichloride (CE1)], the “Light-off Performance” value in data set [2] amounted to 5.2 min.
As for “bis(2-(pentamethylphenylamido)ethyl)-amine zirconium(IV) bis-trimethylsilylmethyl [Compound (1A)]”, the “Light-off Performance” value in data set [2] is 1.3 min. The “time to maximum temperature, times better than HN5Zr dichloride (CE1)” value in data set [2] (relative to HN5Zr dichloride (CE1)) stood at 4 times.
